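Five concentrations, 48 hours, 96-well plates. GI50 = concentration required for 50% inhibition of growth.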 Activity calls are given as the source filed them. Rule as the data show it: active = GI50 up to about 1.1 µM and inactive = higher.

Some test systems named below: SW-620; TK-10; OVCAR-5; DLD-1; NCI-H23; UO-31; SK-MEL-5; K562; A549; HCT-15; A498; KM12; SNB-75; NCI-H460; LOX IMVI; OVCAR-8; Hs-578T; SR; MDA-MB-231; T47D.
What all share (test): NCI-60 cell line screen, 48 h

As to `COc1cccc(C2SCc3nc4ccccc4n32)c1` (stereo not given), the GI50 in the assay with SW-620 is 46.6 µM (inactive); with TK-10, 14.7 µM (inactive); with OVCAR-5, 58.9 µM (inactive); in the assay with DLD-1 it was 88.1 µM (inactive); with NCI-H23, 35 µM (inactive); with UO-31, 22.1 µM (inactive). Besides, the GI50 was 21.1 µM (inactive) in the assay with SK-MEL-5; 45.4 µM (inactive) in the assay with K562; 34.8 µM (inactive) in the assay on A549; 38.8 µM in the assay with HCT-15; 38 µM (inactive) with A498; 56.4 µM (inactive) with KM12. Besides, the GI50 with SNB-75 was 53 µM (inactive); in the assay on NCI-H460, > 100 µM (inactive); in the assay with LOX IMVI it was 54.6 µM (inactive); in the assay on OVCAR-8 it was 57.9 µM (inactive).

Take `N#CCC(=O)N/N=C1/C(=O)N(c2cc(Cl)ccc2Cl)C(=O)C(=O)C1c1nc2ccccc2s1` (stereo not given): the GI50 in the assay on SW-620 is 73.5 µM (inactive); with TK-10, 81.8 µM (inactive); in the assay with OVCAR-5, > 100 µM (inactive); in the assay on DLD-1, > 100 µM (inactive); in the assay on NCI-H23, > 100 µM (inactive); in the assay with UO-31, 36.9 µM (inactive). Also, the GI50 in the assay with SK-MEL-5 is > 100 µM (inactive); with K562 it was > 100 µM (inactive); with A549, > 100 µM (inactive); in the assay on HCT-15, above 100 µM; in the assay with A498, > 100 µM (inactive); in the assay with KM12, > 100 µM (inactive). Moreover, the GI50 in the assay on SNB-75 was 38 µM (inactive); in the assay on NCI-H460, 95.7 µM (inactive); in the assay with LOX IMVI, 64 µM (inactive); with OVCAR-8, 81.5 µM (inactive).

As for `COc1ccc(NN=C2C(=O)CCC2=O)cc1`, the GI50 is > 100 µM (inactive) with SW-620; > 100 µM (inactive) with TK-10; > 100 µM (inactive) in the assay with OVCAR-5; > 100 µM (inactive) in the assay with DLD-1; 69 µM (inactive) with NCI-H23; 98.9 µM (inactive) in the assay on UO-31. The GI50 is 48.2 µM (inactive) with SK-MEL-5; > 100 µM (inactive) in the assay with K562; 18.3 µM (inactive) in the assay with A549; above 100 µM in the assay on HCT-15; 55 µM (inactive) in the assay with A498; > 100 µM (inactive) in the assay with KM12. The GI50 in the assay on SNB-75, in the assay on NCI-H460, with LOX IMVI and in the assay with OVCAR-8 was > 100 µM (inactive) in each case.

For the compound `CCOC(=O)C1=C(Nc2ccc(Cl)c(Cl)c2)OC/C1=N\NC(=O)Cc1ccccc1`, the GI50 with SW-620 was > 100 µM (inactive); in the assay on TK-10, > 100 µM (inactive); with OVCAR-5 it was > 100 µM (inactive); with DLD-1, > 100 µM (inactive); in the assay with NCI-H23, > 100 µM (inactive); in the assay with UO-31, 56.2 µM (inactive). Further, the GI50 in the assay on SK-MEL-5 is > 100 µM (inactive); in the assay with K562, 89.1 µM (inactive); in the assay with A549, > 100 µM (inactive); in the assay with A498 it was > 100 µM (inactive); with KM12, > 100 µM (inactive); in the assay with SNB-75 it was > 100 µM (inactive). The GI50 in the assay with NCI-H460, in the assay on LOX IMVI and in the assay with OVCAR-8 was > 100 µM (inactive) throughout.

On to `O=C(O)C(CO)NC(=O)C1C(C(=O)O)C(c2ccccc2[N+](=O)[O-])C=C(c2ccco2)N1c1ccncc1` (stereo not given), for which the GI50 was 1.87 µM (inactive) with SW-620; 2.9 µM (inactive) with TK-10; 13.5 µM (inactive) with Hs-578T; 11.7 µM (inactive) in the assay with OVCAR-5; 0.9 µM (active) in the assay on SR; 7.16 µM (inactive) with NCI-H23. Further, the GI50 in the assay on UO-31 was 3.68 µM (inactive); in the assay on SK-MEL-5, 4.49 µM (inactive); with K562, 1.99 µM (inactive); in the assay with MDA-MB-231, 3.33 µM (inactive); in the assay with T47D it was 10.2 µM (inactive); in the assay with A549, 3.26 µM (inactive). For the same compound, the GI50 in the assay on HCT-15 was 1.95 µM; with A498, 11.8 µM (inactive); in the assay with KM12 it was 1.73 µM (inactive); in the assay on SNB-75, 8.97 µM (inactive); in the assay on NCI-H460 it was 6.31 µM (inactive); in the assay with LOX IMVI, 1.57 µM (inactive). The GI50 with OVCAR-8 is 5.53 µM (inactive).

Consider `Nc1nc(SC/C=C/c2ccccc2)c2[nH]cnc2n1`, for which the GI50 in the assay with SW-620 is > 100 µM (inactive); with TK-10, 22.4 µM (inactive); with Hs-578T, 16.7 µM (inactive); in the assay on OVCAR-5, > 100 µM (inactive); in the assay with SR, 45.7 µM (inactive); in the assay with NCI-H23 it was > 100 µM (inactive). Further, the GI50 in the assay with UO-31 is 46.8 µM (inactive); in the assay with SK-MEL-5, > 100 µM (inactive); in the assay with K562, 63.2 µM (inactive); with MDA-MB-231, > 100 µM (inactive); with T47D, > 100 µM (inactive); in the assay on A549 it was > 100 µM (inactive). For the same compound, the GI50 is 32.8 µM with HCT-15; > 100 µM (inactive) in the assay on A498; > 100 µM (inactive) in the assay on KM12; 28.6 µM (inactive) in the assay with SNB-75; 72.1 µM (inactive) in the assay with NCI-H460; 53.1 µM (inactive) with LOX IMVI. The GI50 in the assay with OVCAR-8 is 74.5 µM (inactive).

Turning to `O=C1/C(=C/c2ccc(F)cc2)CNC/C1=C\c1ccc(F)cc1`, the GI50 was 0.364 µM (active) in the assay with SW-620; 2.21 µM (inactive) in the assay with TK-10; 4.6 µM (inactive) in the assay on Hs-578T; 2.88 µM (inactive) in the assay with OVCAR-5; 0.305 µM (active) in the assay with SR; 1.5 µM (inactive) in the assay with NCI-H23. Moreover, the GI50 in the assay with UO-31 was 1.81 µM (inactive); with SK-MEL-5, 1.42 µM (inactive); in the assay with K562, 0.245 µM (active); in the assay with MDA-MB-231, 2.39 µM (inactive); with T47D, 3.37 µM (inactive); in the assay on A549 it was 2.92 µM (inactive). Moreover, the GI50 is 0.498 µM in the assay on HCT-15; 2.25 µM (inactive) with A498; 0.53 µM (active) with KM12; 3.75 µM (inactive) in the assay with SNB-75; 0.675 µM (active) in the assay with NCI-H460; 0.63 µM (active) with LOX IMVI. For the same compound, the GI50 with OVCAR-8 was 2.07 µM (inactive).

`O=C1CSC2(CC(/C=C/c3ccccc3)=NN2c2cccc(S(=O)(=O)O)c2)N1c1nc2ccccc2s1` (stereo not given): the GI50 in the assay on SW-620 was 29.6 µM (inactive); with TK-10, 19.5 µM (inactive); with Hs-578T it was 55.5 µM (inactive); in the assay with OVCAR-5, 27.8 µM (inactive); in the assay with SR it was 21.8 µM (inactive); in the assay on NCI-H23 it was 22 µM (inactive). Further, the GI50 was 18.5 µM (inactive) in the assay on UO-31; 44.6 µM (inactive) with SK-MEL-5; 35.1 µM (inactive) in the assay with K562; 24.5 µM (inactive) in the assay with MDA-MB-231; 17.1 µM (inactive) in the assay on T47D; 32.8 µM (inactive) in the assay on A549. Further, the GI50 in the assay on HCT-15 was 32.6 µM; in the assay with A498, 26 µM (inactive); in the assay on KM12, 19.4 µM (inactive); in the assay on SNB-75 it was 26.7 µM (inactive); in the assay with NCI-H460 it was 26.3 µM (inactive); with LOX IMVI, 9.59 µM (inactive). For the same compound, the GI50 in the assay with OVCAR-8 is 17.9 µM (inactive).

As for `O=C1/C(=C/c2ccc(Cl)cc2)CCC/C1=C\c1ccc(O)c(CN2CCCCC2)c1`, the GI50 is 18 µM (inactive) in the assay on SW-620; 29.2 µM (inactive) in the assay with TK-10; 15.7 µM (inactive) in the assay with Hs-578T; 23.8 µM (inactive) with OVCAR-5; 3.78 µM (inactive) with SR; 19.1 µM (inactive) in the assay on NCI-H23. For the same compound, the GI50 in the assay with UO-31 is 16.3 µM (inactive); in the assay on SK-MEL-5, 15.1 µM (inactive); with K562 it was 9.29 µM (inactive); in the assay with MDA-MB-231, 26.9 µM (inactive); in the assay on T47D, 19.5 µM (inactive); in the assay with A549, 27.2 µM (inactive). In addition, the GI50 is 12.2 µM with HCT-15; 14.6 µM (inactive) with A498; 4.51 µM (inactive) with KM12; 19.1 µM (inactive) in the assay with SNB-75; 19.5 µM (inactive) in the assay on NCI-H460; 13.1 µM (inactive) in the assay on LOX IMVI. Moreover, the GI50 in the assay with OVCAR-8 is 14.5 µM (inactive).

Consider `COC(OC)c1cc2c(cc1C=O)OCO2`, for which the GI50 with SW-620 was > 100 µM (inactive); with TK-10, > 100 µM (inactive); in the assay with OVCAR-5, > 100 µM (inactive); in the assay with DLD-1 it was 34.9 µM (inactive); with SR, > 100 µM (inactive); in the assay on NCI-H23 it was > 100 µM (inactive). The GI50 with UO-31 was 45.3 µM (inactive); in the assay with SK-MEL-5, 30.6 µM (inactive); in the assay on K562, 64.9 µM (inactive); in the assay with A549 it was > 100 µM (inactive); in the assay with KM12 it was > 100 µM (inactive); with SNB-75, 21.2 µM (inactive). The GI50 in the assay on NCI-H460 and with OVCAR-8 was > 100 µM (inactive) in each case.

In the case of `CC(C)=CC(Cc1ccccc1)S(=O)(=O)c1nc2ccccc2s1` (stereo not given), the GI50 in the assay with SW-620 was 18.7 µM (inactive); in the assay with TK-10 it was 20 µM (inactive); with Hs-578T, 29.6 µM (inactive); in the assay with OVCAR-5 it was 19.2 µM (inactive); with SR, 1.98 µM (inactive); in the assay with NCI-H23, 13.5 µM (inactive). The GI50 in the assay with UO-31 was 13.8 µM (inactive); with SK-MEL-5 it was 13.6 µM (inactive); with K562, 12.6 µM (inactive); in the assay with MDA-MB-231, 19.8 µM (inactive); in the assay on T47D it was 23.6 µM (inactive); in the assay with A549, 23.4 µM (inactive). Moreover, the GI50 in the assay on HCT-15 is 17.7 µM; in the assay with A498, 19.9 µM (inactive); with KM12, 18.7 µM (inactive); in the assay with SNB-75 it was 16.6 µM (inactive); in the assay with NCI-H460 it was 21.3 µM (inactive); in the assay on LOX IMVI, 2.69 µM (inactive). Further, in the assay with OVCAR-8, the GI50 was 15.4 µM (inactive).

Consider `C=C1CN=C(Nc2ccc(Cl)cc2)S1`, for which the GI50 is > 100 µM (inactive) in the assay on SW-620; > 100 µM (inactive) in the assay on TK-10; > 100 µM (inactive) in the assay with Hs-578T; > 100 µM (inactive) with OVCAR-5; 52.8 µM (inactive) with SR; > 100 µM (inactive) with NCI-H23. Further, the GI50 in the assay with UO-31 is > 100 µM (inactive); with SK-MEL-5, > 100 µM (inactive); in the assay on K562 it was 96.8 µM (inactive); in the assay with MDA-MB-231 it was > 100 µM (inactive); in the assay on T47D, > 100 µM (inactive); with A549 it was > 100 µM (inactive). In addition, the GI50 in the assay on HCT-15 was above 100 µM; in the assay on A498, > 100 µM (inactive); in the assay on KM12, 66.7 µM (inactive); with SNB-75, > 100 µM (inactive); with NCI-H460, > 100 µM (inactive); with LOX IMVI, 62.1 µM (inactive). For the same compound, the GI50 in the assay with OVCAR-8 was > 100 µM (inactive).
